Results from US11247990B1, “Bicyclic fused pyridine compounds as inhibitors of TAM kinases” (ARRAY BIOPHARMA INC., priority 2017, dated 2022).
Where a name gives a salt, the structure may show the parent alone.

Columns and labels:
Settings in all cases: averaged IC50
[1] = biological target: His-tagged recombinant human AXL cytoplasmic domain (Homo sapiens (Human), UniProt P30530); assay: AXL Enzyme Assay (LanthaScreen Eu Kinase Binding, TR-FRET)
Outline: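 Compound displacement measured by TR-FRET after 60 min at 22 °C, using Eu-based LanthaScreen binding technology. Ratiometric emission converted to percent of control, fitted to a 4-parameter logistic curve, with IC50 at 50 POC.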

[2] = biological target: His-tagged recombinant human MER cytoplasmic domain (Homo sapiens (Human), UniProt Q12866); assay: MER Enzyme Assay (LanthaScreen Eu Kinase Binding, TR-FRET)
Outline: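 Percent of control, derived from ratiometric TR-FRET emission, was fitted to a 4-parameter logistic curve and IC50 taken at 50 POC. Binding was read after 60 min at 22 °C using Eu-based LanthaScreen technology and recombinant His-tagged MER cytoplasmic domain.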

[3] = biological target: GST-tagged recombinant human TYRO3 kinase domain (Homo sapiens (Human), UniProt Q06418); assay: TYRO3 Enzyme Assay (LanthaScreen Eu Kinase Binding, TR-FRET)
Outline: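 LanthaScreen Eu binding (tracer displacement) format read by TR-FRET after 60 min at 22 °C. Emission ratio converted to percent of control; IC50 taken where a 4-parameter logistic fit crosses 50 POC.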

Sequence of His-tagged recombinant human MER cytoplasmic domain (Q12866 527-999): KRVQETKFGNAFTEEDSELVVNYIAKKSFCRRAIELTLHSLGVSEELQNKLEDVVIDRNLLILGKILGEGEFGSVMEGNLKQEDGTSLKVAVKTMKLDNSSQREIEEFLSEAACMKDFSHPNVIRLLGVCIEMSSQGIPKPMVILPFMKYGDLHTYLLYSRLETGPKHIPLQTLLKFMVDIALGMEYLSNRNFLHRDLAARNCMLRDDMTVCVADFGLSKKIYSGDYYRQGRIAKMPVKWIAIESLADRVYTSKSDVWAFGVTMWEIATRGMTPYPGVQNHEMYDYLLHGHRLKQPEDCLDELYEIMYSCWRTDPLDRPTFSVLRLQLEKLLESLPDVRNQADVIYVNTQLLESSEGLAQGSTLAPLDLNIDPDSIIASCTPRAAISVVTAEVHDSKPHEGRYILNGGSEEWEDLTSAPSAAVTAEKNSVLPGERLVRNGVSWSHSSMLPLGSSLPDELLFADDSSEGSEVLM
Sequence of GST-tagged recombinant human TYRO3 kinase domain (Q06418 518-790): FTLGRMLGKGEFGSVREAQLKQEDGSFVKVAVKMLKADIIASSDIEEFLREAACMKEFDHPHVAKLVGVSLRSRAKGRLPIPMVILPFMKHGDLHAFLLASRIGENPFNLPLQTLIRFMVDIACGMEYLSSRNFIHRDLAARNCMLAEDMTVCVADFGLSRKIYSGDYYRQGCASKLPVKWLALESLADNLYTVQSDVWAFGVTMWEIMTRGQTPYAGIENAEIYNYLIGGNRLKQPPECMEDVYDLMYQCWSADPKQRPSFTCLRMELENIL
Sequence of His-tagged recombinant human AXL cytoplasmic domain (P30530 473-894): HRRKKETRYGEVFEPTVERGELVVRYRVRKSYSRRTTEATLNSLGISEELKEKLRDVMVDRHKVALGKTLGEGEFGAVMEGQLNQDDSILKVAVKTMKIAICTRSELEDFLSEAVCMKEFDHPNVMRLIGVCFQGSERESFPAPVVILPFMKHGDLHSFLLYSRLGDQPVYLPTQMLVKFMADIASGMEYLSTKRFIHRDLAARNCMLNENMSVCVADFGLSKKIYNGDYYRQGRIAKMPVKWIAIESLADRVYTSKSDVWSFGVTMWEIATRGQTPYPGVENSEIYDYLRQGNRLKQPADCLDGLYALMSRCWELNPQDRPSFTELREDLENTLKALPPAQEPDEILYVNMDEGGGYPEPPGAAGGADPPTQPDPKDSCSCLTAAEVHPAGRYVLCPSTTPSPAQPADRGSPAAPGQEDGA

Q: Which results are given for `CNc1cc2c(cn1)c(-c1cnn(C)c1)nn2[C@H]1CC[C@@H](Oc2cn(C)nc2C(F)(F)F)CC1` [Example 162, N-methyl-3-(1-methyl-1H-pyrazol-4-yl)-1-((1s,4s)-4-((1-methyl-3-(trifluoromethyl)-1H-pyrazol-4-yl)oxy)cyclohexyl)-1H-pyrazolo[4,3-c]pyridin-6-amine]?
A: IC50 [1]: < 10 nM; IC50 [2]: < 10 nM; IC50 [3]: < 10 nM

Q: With `CNc1cc2c(cn1)c(-c1cnn(C(C)(C)C#N)c1)nn2[C@H]1CC[C@@H](Oc2cn(C)nc2C(F)(F)F)CC1` [Example 163, 2-methyl-2-(4-(1-((1s,4s)-4-((1-methyl-3-(trifluoromethyl)-1H-pyrazol-4-yl)oxy)cyclohexyl)-6-(methylamino)-lH-pyrazolo[4,3-c]pyridin-3-yl)-1H-pyrazol-1-yl)propanenitrile] as the compound, how does the IC50 [1] read?
A: < 10 nM

Q: And the IC50 [2]?
A: < 10 nM

Q: And the IC50 [3]?
A: < 10 nM

Q: Which results are given for `CCNc1cc2c(cn1)c(-c1cnn(C(C)(C)C#N)c1)nn2[C@H]1CC[C@@H](Oc2cccnc2C(F)(F)F)CC1` [Example 164, 2-(4-(6-(ethylamino)-1-((1s,4s)-4-((2-(trifluoromethyl)pyridin-3-yl)oxy)cyclohexyl)-1H-pyrazolo[4,3-c]pyridin-3-yl)-1H-pyrazol-1-yl)-2-methylpropanenitrile]?
A: IC50 [1]: < 10 nM; IC50 [2]: < 10 nM; IC50 [3]: < 10 nM

Q: Which IC50 [1] does the source give for `CNc1cc2c(cn1)c(-c1cnn(C)c1)nn2[C@H]1CC[C@@H](Oc2cccnc2C(C)C)CC1` [Example 165, 1-((1 s,4s)-4-((2-isopropylpyridin-3-yl)oxy)cyclohexyl)-N-methyl(1-methyl-1H-pyrazol-4-yl)-1H-pyrazolo[4,3-c]pyridin-6-amine] here?
A: < 10 nM

Q: And the IC50 [2]?
A: < 10 nM

Q: And the IC50 [3]?
A: 10 to 100 nM

Q: Which results are given for `CNc1cc2c(cn1)c(-c1cnn(C)c1)nn2[C@H]1CC[C@@H](Oc2nccnc2C(F)(F)F)CC1` [Example 171, N-methyl-3-(1-methyl-1H-pyrazol-4-yl)-1-((1s,4s)-4-((3-(trifluoromethyl)pyrazin-2-yl)oxy)cyclohexyl)-1H-pyrazolo[4,3-c]pyridin-6-amine]?
A: IC50 [1]: < 10 nM; IC50 [2]: < 10 nM; IC50 [3]: < 10 nM

Q: With `CNc1cc2c(cn1)c(-c1cnn(C)c1)nn2[C@H]1CC[C@@H](Oc2nccc(C(F)(F)F)c2F)CC1` [Example 173, 1-((1s,4s)-4-((3-fluoro-4-(trifluoromethyl)pyridin-2-yl)oxy)cyclohexyl)-N-methyl-3-(1-methyl-1H-pyrazol-4-yl)-1H-pyrazolo[4,3-c]pyridin-6-amine] as the compound, how does the IC50 [1] read?
A: < 10 nM

Q: And the IC50 [2]?
A: < 10 nM

Q: What about the IC50 [3] of the same compound?
A: 10 to 100 nM

Q: Which results are given for `CNc1cc2c(cn1)c(-c1cnn(C)c1)nn2[C@H]1CC[C@@H](Oc2cc(Cl)cnc2C#N)CC1` [Example 175, 5-chloro-3-(((1s,4s)-4-(3-(1-methyl-1H-pyrazol-4-yl)-6-(methylamino)-1H-pyrazolo[4,3-c]pyridin-1-yl)cyclohexyl)oxy)picolinonitrile]?
A: IC50 [1]: < 10 nM; IC50 [2]: < 10 nM; IC50 [3]: 10 to 100 nM

Q: `CCNc1cc2c(cn1)c(-c1cnn(C)c1)nn2[C@H]1CC[C@@H](Oc2cccnc2F)CC1` [Example 183, N-ethyl-1-((1s,4s)-4-((2-fluoropyridin-3-yl)oxy)cyclohexyl)-3-(1-methyl-1H-pyrazol-4-yl)-1H-pyrazolo[4,3-c]pyridin-6-amine] was tested. Which IC50 [1] did it give?
A: < 10 nM

Q: And the IC50 [2]?
A: < 10 nM

Q: What about the IC50 [3] of the same compound?
A: < 10 nM

Q: Which results are given for `CCNc1cc2c(cn1)c(-c1cnn(C)c1)nn2[C@H]1CC[C@@H](Oc2cccnc2C(F)(F)F)CC1` [Example 184, N-ethyl-3-(1-methyl-1H-pyrazol-4-yl)-1-((1s,4s)-4-((2-(trifluoromethyl)pyridin-3-yl)oxy)cyclohexyl)-1H-pyrazolo[4,3-c]pyridin-6-amine]?
A: IC50 [1]: < 10 nM; IC50 [2]: < 10 nM; IC50 [3]: < 10 nM

Q: How did the IC50 [1] turn out when `CCNc1cc2c(cn1)c(-c1cnn(C)c1)nn2[C@H]1CC[C@@H](Oc2cccnc2C#N)CC1` [Example 188, 3-(((1s,4s)-4-(6-(ethylamino)-3-(1-methyl-1H-pyrazol-4-yl)-1H-pyrazolo[4,3-c]pyridin-1-yl)cyclohexyl)oxy)picolinonitrile] was run?
A: < 10 nM

Q: What about the IC50 [2] of the same compound?
A: < 10 nM

Q: And the IC50 [3]?
A: < 10 nM

Q: `CCNc1cc2c(cn1)c(-c1cnn(C)c1)nn2[C@H]1CC[C@@H](Oc2nccnc2CC)CC1` [Example 190, N-ethyl-1-((1s,4s)-4-((3-ethylpyrazin-2-yl)oxy)cyclohexyl)-3-(1-methyl-1H-pyrazol-4-yl)-1H-pyrazolo[4,3-c]pyridin-6-amine] was tested. Which IC50 [1] did it give?
A: < 10 nM

Q: What about the IC50 [2] of the same compound?
A: < 10 nM

Q: And the IC50 [3]?
A: 10 to 100 nM

Q: How did the IC50 [1] turn out when `CCNc1cc2c(cn1)c(-c1cnn(C)c1)nn2[C@H]1CC[C@@H](Oc2nccnc2C(F)(F)F)CC1` [Example 194, N-ethyl-3-(1-methyl-1H-pyrazol-4-yl)-1-((1s,4s)-4-((3-(trifluoromethyl)pyrazin-2-yl)oxy)cyclohexyl)-1H-pyrazolo[4,3-c]pyridin-6-amine] was run?
A: < 10 nM

Q: And the IC50 [2]?
A: < 10 nM

Q: What about the IC50 [3] of the same compound?
A: < 10 nM

Q: Which IC50 [1] does the source give for `CCNc1cc2c(cn1)c(-c1cnn(C)c1)nn2[C@H]1CC[C@@H](Oc2nccc(C(F)(F)F)c2F)CC1` [Example 198, N-ethyl-1-((1s,4s)-4-((3-fluoro-4-(trifluoromethyl)pyridin-2-yl)oxy)cyclohexyl)-3-(1-methyl-1H-pyrazol-4-yl)-1H-pyrazolo[4,3-c]pyridin-6-amine] here?
A: < 10 nM

Q: And the IC50 [2]?
A: < 10 nM

Q: What about the IC50 [3] of the same compound?
A: 10 to 100 nM

Q: Which IC50 [1] does the source give for `C#Cc1ncccc1OC1CCC(n2nc(-c3cnn(C)c3)c3cnc(NCC)cc32)CC1` (stereo not drawn) [Example 199, N-ethyl-1-((1s,4s)-4-((2-ethynylpyridin-3-yl)oxy)cyclohexyl)-3-(1-methyl-1H-pyrazol-4-yl)-1H-pyrazolo[4,3-c]pyridin-6-amine] here?
A: < 10 nM

Q: What about the IC50 [2] of the same compound?
A: < 10 nM

Q: What about the IC50 [3] of the same compound?
A: < 10 nM

Q: Which results are given for `CNc1cc2c(cn1)c(-c1cnn(C[C@H](O)CO)c1)nn2[C@H]1CC[C@@H](Oc2cccnc2C(F)(F)F)CC1` [Example 204, (S)-3-(4-(6-(methylamino)-1-((1s,4R)-4-((2-(trifluoromethyl)pyridin-3-yl)oxy)cyclohexyl)-1H-pyrazolo[4,3-c]pyridin-3-yl)-1H-pyrazol-1-yl)propane-1,2-diol hydrochloride]?
A: IC50 [1]: < 10 nM; IC50 [2]: < 10 nM; IC50 [3]: < 10 nM

Q: How did the IC50 [1] turn out when `CCNc1cc2c(cn1)c(-c1cnn(CC(CO)CO)c1)nn2[C@H]1CC[C@@H](Oc2cccnc2C(F)(F)F)CC1` [Example 205, 2-((4-(6-(ethylamino)-1-((1s,4s)-4-((2-(trifluoromethyl)pyridin-3-yl)oxy)cyclohexyl)-1H-pyrazolo[4,3-c]pyridin-3-yl)-1H-pyrazol-1-yl)methyl)propane-1,3-diol] was run?
A: < 10 nM

Q: And the IC50 [2]?
A: < 10 nM

Q: And the IC50 [3]?
A: < 10 nM

Q: Which results are given for `CNc1cc2c(cn1)c(-c1cnn(C[C@@H](O)CO)c1)nn2[C@H]1CC[C@@H](Oc2cccnc2C(F)(F)F)CC1` [Example 206, ®-3-(4-(6-(methylamino)-1-((1s,4s)-4-((2-(trifluoromethyl)pyridin-3-yl)oxy)cyclohexyl)-1H-pyrazolo[4,3-c]pyridin-3-yl)-1H-pyrazol-1-yl)propane-1,2-diol]?
A: IC50 [1]: < 10 nM; IC50 [2]: < 10 nM; IC50 [3]: < 10 nM

Q: Which results are given for `CCNc1cc2c(cn1)c(-c1cnn(C(CO)CO)c1)nn2[C@H]1CC[C@@H](Oc2cccnc2C(F)(F)F)CC1` [Example 207, 2-(4-(6-(ethylamino)-1-((1s,4s)-4-((2-(trifluoromethyl)pyridin-3-yl)oxy)cyclohexyl)-1H-pyrazolo[4,3-c]pyridin-3-yl)-1H-pyrazol-1-yl)propane-1,3-diol]?
A: IC50 [1]: < 10 nM; IC50 [2]: < 10 nM; IC50 [3]: < 10 nM

Q: What does the source list for `CCNc1cc2c(cn1)c(-c1cnn(C[C@H](O)CO)c1)nn2[C@H]1CC[C@@H](Oc2cccnc2C(F)(F)F)CC1` [Example 208, (S)-3-(4-(6-(ethylamino)-1-((1s,4R)-4-((2-(trifluoromethyl)pyridin-3-yl)oxy)cyclohexyl)-1H-pyrazolo[4,3-c]pyridin-3-yl)-1H-pyrazol-1-yl)propane-1,2-diol]?
A: IC50 [1]: < 10 nM; IC50 [2]: < 10 nM; IC50 [3]: < 10 nM

Q: With `CCNc1cc2c(cn1)c(-c1cnn(C[C@@H](O)CO)c1)nn2[C@H]1CC[C@@H](Oc2cccnc2C(F)(F)F)CC1` [Example 209, ®-3-(4-(6-(ethylamino)-1-((1s,4R)-4-((2-(trifluoromethyl)pyridin-3-yl)oxy)cyclohexyl)-1H-pyrazolo[4,3-c]pyridin-3-yl)-1H-pyrazol-1-yl)propane-1,2-diol] as the compound, how does the IC50 [1] read?
A: < 10 nM

Q: What about the IC50 [2] of the same compound?
A: < 10 nM

Q: What about the IC50 [3] of the same compound?
A: < 10 nM

Q: With `CNc1cc2c(cn1)c(-c1cnn(C(CO)CO)c1)nn2[C@H]1CC[C@@H](Oc2cccnc2C(F)(F)F)CC1` [Example 210, 2-(4-(6-(methylamino)-1-((1 s,4s)-4-((2-(trifluoromethyl)pyridin-3-yl)oxy)cyclohexyl)-1H-pyrazolo[4,3-c]pyridin-3-yl)-1H-pyrazol-1-yl)propane-1,3-diol] as the compound, how does the IC50 [1] read?
A: < 10 nM

Q: What about the IC50 [2] of the same compound?
A: < 10 nM

Q: What about the IC50 [3] of the same compound?
A: < 10 nM

Q: `CNc1cc2c(cn1)c(-c1cnn(CCS(C)(=O)=O)c1)nn2[C@H]1CC[C@@H](Oc2nccnc2C)CC1` [Example 211, N-methyl-1-((1s,4s)-4-((3-methylpyrazin-2-yl)oxy)cyclohexyl)-3-(1-(2-(methylsulfonyl)ethyl)-1H-pyrazol-4-yl)-1H-pyrazolo[4,3-c]pyridin-6-amine] was tested. Which IC50 [1] did it give?
A: < 10 nM

Q: What about the IC50 [2] of the same compound?
A: < 10 nM

Q: And the IC50 [3]?
A: 10 to 100 nM

Q: With `CNc1cc2c(cn1)c(-c1cnn(C(C)(C)C#N)c1)nn2[C@H]1CC[C@@H](Oc2nccnc2C)CC1` [Example 212, 2-methyl-2-(4-(6-(methylamino)-1-((1s,4s)-4-((3-methylpyrazin-2-yl)oxy)cyclohexyl)-1H-pyrazolo[4,3-c]pyridin-3-yl)-1H-pyrazol-1-yl)propanenitrile] as the compound, how does the IC50 [1] read?
A: < 10 nM

Q: And the IC50 [2]?
A: < 10 nM

Q: What about the IC50 [3] of the same compound?
A: 10 to 100 nM
